According to PMC11239830, “Synthetic macrolides overcoming MLSBK-resistant pathogens” (Cell Discovery, 2024):
In brackets after ≈: the same amount, converted by molar mass. Like-named read-outs stand apart in the source and are kept apart here.

What was measured:
S. pneumoniae = experiment: MIC, broth microdilution; type: cell-based, Streptococcus pneumoniae
Protocol: (§1) MICs were determined by the microdilution method according to the Clinical and Laboratory Standards Institute guidelines. […] Finally, the 96-well plates were incubated at 37 °C for 16–20 h to observe and record the results. […] The assay for MICs was replicated at least three times.

S. pyogenes = experiment: MIC, broth microdilution; type: cell-based, Streptococcus pyogenes
Protocol: as §1

S. aureus [1] = experiment: MIC, broth microdilution; type: cell-based, Staphylococcus aureus
Protocol: as §1

H. influenzae = experiment: MIC, broth microdilution; type: cell-based, Haemophilus influenzae
Protocol: as §1

M. catarrhalis = experiment: MIC, broth microdilution; type: cell-based, Moraxella catarrhalis; conditions: M. catarrhalis 13L332, Ery-S
Protocol: MICs were determined by the microdilution method according to the Clinical and Laboratory Standards Institute guidelines. Briefly, the stock solution of compounds and the reference antibiotics were diluted 2-fold in sterile 96-well plates with cation-adjusted Mueller-Hinton broth, and mixed with CAMHB-containing bacteria to give a final inoculum of 5 × 10^5 CFU/mL for broth microdilution experiments. […] Finally, the 96-well plates were incubated at 37 °C for 16–20 h to observe and record the results. The lowest concentration at which no bacterial growth could be observed visually was identified as the MICs of the compounds. The assay for MICs was replicated at least three times.

S. aureus [2] = experiment: MICs and MBCs against selected S. aureus isolates; type: cell-based, Staphylococcus aureus
[3] = Streptococcus pneumoniae, S. pneumoniae PU09, mef, read-out: MIC
[4] = Streptococcus pyogenes, S. pyogenes 01-968, i-ermTR (Table S5), read-out: MIC
[5] = Haemophilus influenzae, ATCC49247, H. influenzae ATCC49247, Azi-S, read-out: MIC
[6] = Moraxella catarrhalis, read-out: MIC
[7] = S. pneumoniae 05O173, c-ermB, mef
[8] = Streptococcus pneumoniae, ATCC49619, S. pneumoniae ATCC49619, Ery-S, read-out: MIC
[9] = Streptococcus pneumoniae, S. pneumoniae 07P390, c-ermB, read-out: MIC
[10] = Staphylococcus aureus, MRSA, strain 1, MRSA, i-ermA
[11] = Staphylococcus aureus, MRSA, strain 4, MRSA, i-ermA
[12] = Staphylococcus aureus, MRSA, strain 5, MRSA, i-ermC
[13] = Staphylococcus aureus, MRSA, strain 6, MRSA, c-ermB
[14] = Staphylococcus aureus, MRSA, strain 7, MRSA, c-ermB
[15] = Staphylococcus aureus, MRSA, strain 10, MRSA, c-ermB
[16] = Staphylococcus aureus, MRSA, strain 11, MRSA, c-ermB

`CC[C@H]1OC(=O)[C@H](C)[C@@H](O[C@H]2C[C@@](C)(OC)[C@@H](O)[C@H](C)O2)[C@H](C)[C@@H](O[C@@H]2O[C@H](C)C[C@H](N(C)C)[C@H]2O)[C@](C)(OC)C[C@@H](C)C(=O)[C@H](C)[C@@H](O)[C@]1(C)O` [clarithromycin, reference compound] showed an MIC (S. pneumoniae; S. pneumoniae 07P390, c-ermB) of 512 µg/mL (≈ 685 µM), an MIC (S. pneumoniae; S. pneumoniae 21C315, Clinical, c-ermB) of over 64 µg/mL and an MIC (S. pneumoniae; S. pneumoniae 21D016, Clinical, c-ermB, mef) of over 64 µg/mL. The MIC (S. pneumoniae; S. pneumoniae 21D020, Clinical, c-ermB, mef) was over 64 µg/mL, the MIC (S. pneumoniae; S. pneumoniae 21M277, Clinical, c-ermB) was over 64 µg/mL and the MIC (S. pneumoniae; S. pneumoniae 21Q352, Clinical, i-MLSB) was 16 µg/mL (≈ 21.4 µM). For the same molecule, the MIC (S. pneumoniae; S. pneumoniae 21Q353, Clinical, i-MLSB) was 8 µg/mL (≈ 10.7 µM), the MIC (S. pneumoniae; S. pneumoniae 21W257, Clinical, c-ermB, mef) was over 64 µg/mL and the MIC (S. pneumoniae; S. pneumoniae 21X435, Clinical) was 0.12 µg/mL (≈ 0.16 µM). For the same molecule, the MIC (S. pneumoniae; S. pneumoniae ATCC49619) was 0.12 µg/mL (≈ 0.16 µM), the MIC (S. pneumoniae; [3]) was 8 µg/mL (≈ 10.7 µM) and the MIC (S. pyogenes; S. pyogenes 12-206, c-ermTR) was 512 µg/mL (≈ 685 µM). For the same molecule, the MIC (S. pyogenes; S. pyogenes 21C303, Clinical, c-ermB) was over 64 µg/mL, the MIC (S. pyogenes; S. pyogenes 21D184, Clinical, c-ermB) was over 64 µg/mL and the MIC (S. pyogenes; S. pyogenes 21D199, Clinical, c-ermB) was over 64 µg/mL. For the same molecule, the MIC (S. pyogenes; S. pyogenes 21D200, Clinical, c-ermB) was over 64 µg/mL, the MIC (S. pyogenes; S. pyogenes 21K003, Clinical, mef) was 2 µg/mL (≈ 2.67 µM) and the MIC (S. pyogenes; S. pyogenes 21M063, Clinical, c-ermB) was over 64 µg/mL. For the same molecule, the MIC (S. pyogenes; S. pyogenes 21W186, Clinical, c-ermTR) was over 64 µg/mL, the MIC (S. pyogenes; [4]) was 4 µg/mL (≈ 5.35 µM) and the MIC (S. aureus [1]; S. aureus 15B196, c-ermB) was 512 µg/mL (≈ 685 µM). It also gave an MIC (S. aureus [1]; S. aureus ATCC29213) of 0.25 µg/mL (≈ 0.334 µM), an MIC (S. aureus [1]; S. aureus PU32, Clinical, MRSA, i-ermA) of 16 µg/mL (≈ 21.4 µM) and an MIC (H. influenzae; [5]) of 16 µg/mL (≈ 21.4 µM). For the same molecule, the MIC (M. catarrhalis; [6]) was 0.25 µg/mL (≈ 0.334 µM).

With `CC[C@H]1OC(=O)[C@H](C)[C@@H](OC(=O)NCCCCCCCCc2ccc3c(=O)c(C(=O)O)cn(C)c3c2)[C@H](C)[C@@H](O[C@@H]2O[C@H](C)C[C@H](N(C)C)[C@H]2O)[C@](C)(OC)C[C@@H](C)C(=O)[C@H](C)[C@H]2NC(=O)O[C@@]21C` [90g] the MIC (S. pneumoniae; [7]) was 8 µg/mL (≈ 8.24 µM), the MIC (S. pneumoniae; S. pneumoniae 07P390, c-ermB) was 0.03 µg/mL (≈ 0.0309 µM) and the MIC (S. pneumoniae; S. pneumoniae ATCC49619, Ery-S) was at most 0.008 µg/mL. The MIC (S. pyogenes; S. pyogenes 12-206, c-ermTR) was 0.12 µg/mL (≈ 0.124 µM), the MIC (H. influenzae; H. influenzae ATCC49247, Azi-S) was 4 µg/mL (≈ 4.12 µM) and the MIC (M. catarrhalis) was 2 µg/mL (≈ 2.06 µM).

With `CC[C@H]1OC(=O)[C@H](C)[C@@H](OC(=O)NCCCOCCC#Cc2ccc3c(=O)c(C(=O)O)cn(C4CC4)c3c2)[C@H](C)[C@@H](O[C@@H]2O[C@H](C)C[C@H](N(C)C)[C@H]2O)[C@](C)(OC)C[C@@H](C)C(=O)[C@H](C)[C@H]2NC(=O)O[C@@]21C` [95c] the MIC (S. pneumoniae; [8]) was 0.03 µg/mL (≈ 0.0301 µM), the MIC (S. pneumoniae; Streptococcus pneumoniae, S. pneumoniae 05O173, c-ermB, mef, read-out: MIC) was 4 µg/mL (≈ 4.02 µM) and the MIC (S. pneumoniae; [9]) was 0.25 µg/mL (≈ 0.251 µM). The MIC (S. pyogenes; Streptococcus pyogenes, S. pyogenes 12-206, c-ermTR, read-out: MIC) was 0.5 µg/mL (≈ 0.502 µM), the MIC (H. influenzae; [5]) was 2 µg/mL (≈ 2.01 µM) and the MIC (M. catarrhalis; [6]) was 0.5 µg/mL (≈ 0.502 µM).

`CC[C@H]1OC(=O)[C@H](C)[C@@H](OC(=O)NCCCCCCCCc2ccc3c(=O)c(C(=O)O)cn(C)c3c2)[C@H](C)[C@@H](O[C@@H]2O[C@H](C)C[C@H](N(C)C)[C@H]2O)[C@](C)(O)C[C@@H](C)CN(C)[C@H](C)[C@@H](O)[C@]1(C)O` [107g] showed an MIC (S. pneumoniae; [7]) of 128 µg/mL (≈ 135 µM), an MIC (S. pneumoniae; S. pneumoniae 07P390, c-ermB) of 4 µg/mL (≈ 4.22 µM) and an MIC (S. pneumoniae; S. pneumoniae ATCC49619, Ery-S) of 0.25 µg/mL (≈ 0.264 µM). The MIC (S. pyogenes; S. pyogenes 12-206, c-ermTR) was 8 µg/mL (≈ 8.45 µM), the MIC (H. influenzae; H. influenzae ATCC49247, Azi-S) was 8 µg/mL (≈ 8.45 µM) and the MIC (M. catarrhalis) was 1 µg/mL (≈ 1.06 µM).

`CC[C@H]1OC(=O)[C@@](C)(F)C(=O)[C@H](C)[C@@H](O[C@@H]2O[C@H](C)C[C@H](N(C)C)[C@H]2O)[C@](C)(OC)C[C@@H](C)C(=O)[C@H](C)[C@H]2N(CCCCn3cc(-c4cccc(N)c4)nn3)C(=O)O[C@]12C` [solithromycin] gave an MIC (S. pneumoniae; [8]) of 0.016 µg/mL (≈ 0.0189 µM), an MIC (S. pneumoniae; [9]) of 0.03 µg/mL (≈ 0.0355 µM) and an MIC (S. pneumoniae; [3]) of 0.5 µg/mL (≈ 0.592 µM). For the same molecule, the MIC (S. pyogenes; [4]) was 0.016 µg/mL (≈ 0.0189 µM), the MIC (S. pyogenes; Streptococcus pyogenes, S. pyogenes 12-206, c-ermB (Table S5), read-out: MIC) was 0.03 µg/mL (≈ 0.0355 µM) and the MIC (H. influenzae; [5]) was 2 µg/mL (≈ 2.37 µM). The MBC/MIC (S. aureus [2]; S. aureus ATCC29213) was over 8, the MIC (S. aureus [2]; Staphylococcus aureus, ATCC29213, S. aureus ATCC29213 (Table S10), read-out: MIC) was 0.06 µg/mL (≈ 0.071 µM) and the MBC (S. aureus [2]; [10]) was over 0.5 µg/mL. For the same molecule, the MIC (S. aureus [2]; [10]) was 0.06 µg/mL (≈ 0.071 µM), the MBC (S. aureus [2]; [11]) was over 0.5 µg/mL and the MIC (S. aureus [2]; [11]) was 0.06 µg/mL (≈ 0.071 µM). The MBC (S. aureus [2]; [12]) was 0.5 µg/mL (≈ 0.592 µM), the MIC (S. aureus [2]; [12]) was 0.06 µg/mL (≈ 0.071 µM) and the MBC (S. aureus [2]; [13]) was over 2 µg/mL. The MIC (S. aureus [2]; [13]) was 0.25 µg/mL (≈ 0.296 µM), the MBC (S. aureus [2]; [14]) was over 4 µg/mL and the MIC (S. aureus [2]; [14]) was 0.5 µg/mL (≈ 0.592 µM). For the same molecule, the MBC (S. aureus [2]; [15]) was over 2 µg/mL, the MIC (S. aureus [2]; [15]) was 0.25 µg/mL (≈ 0.296 µM) and the MBC (S. aureus [2]; [16]) was over 2 µg/mL. It also gave an MIC (S. aureus [2]; [16]) of 0.25 µg/mL (≈ 0.296 µM), an MIC (S. aureus [2]; Staphylococcus aureus, MSSA, strain 2, MSSA, i-ermC, read-out: MIC) of 0.06 µg/mL (≈ 0.071 µM) and an MIC (S. aureus [2]; Staphylococcus aureus, MSSA, strain 3, MSSA, i-ermC, read-out: MIC) of 0.06 µg/mL (≈ 0.071 µM). The MBC (S. aureus [2]; Staphylococcus aureus, MSSA, strain 8, MSSA, c-ermB) was 128 µg/mL (≈ 151 µM), the MIC (S. aureus [2]; Staphylococcus aureus, MSSA, strain 8, MSSA, c-ermB, read-out: MIC) was 16 µg/mL (≈ 18.9 µM) and the MBC (S. aureus [2]; Staphylococcus aureus, MSSA, strain 9, MSSA, c-ermB) was over 256 µg/mL. For the same molecule, the MIC (S. aureus [2]; Staphylococcus aureus, MSSA, strain 9, MSSA, c-ermB, read-out: MIC) was 32 µg/mL (≈ 37.9 µM), the MBC (S. aureus [2]; Staphylococcus aureus, S. aureus ATCC29213, read-out: MBC) was over 0.5 µg/mL and the MBC (S. aureus [2]; Staphylococcus aureus, strain 3, MSSA, i-ermC, read-out: MBC) was over 0.5 µg/mL. For the same molecule, the “bactericidal or bacteriostatic by MBC/MIC” value (S. aureus [2]; selected S. aureus isolates) was “bacteriostatic against all selected isolates”, the MBC/MIC (S. aureus [2]; strain 1, MRSA, i-ermA) was over 8 and the MBC (S. aureus [2]; strain 2, MSSA, i-ermC) was over 0.5 µg/mL. It also gave an MBC/MIC (S. aureus [2]; strain 2, MSSA, i-ermC) of over 8, an MBC/MIC (S. aureus [2]; strain 3, MSSA, i-ermC) of over 8 and an MBC/MIC (S. aureus [2]; strain 4, MRSA, i-ermA) of over 8. For the same molecule, the MBC/MIC (S. aureus [2]; strain 5, MRSA, i-ermC) was 8, the MBC/MIC (S. aureus [2]; strain 6, MRSA, c-ermB) was over 8 and the MBC/MIC (S. aureus [2]; strain 7, MRSA, c-ermB) was over 8. It also gave an MBC/MIC (S. aureus [2]; strain 8, MSSA, c-ermB) of 8, an MBC/MIC (S. aureus [2]; strain 9, MSSA, c-ermB) of over 8 and an MBC/MIC (S. aureus [2]; strain 10, MRSA, c-ermB) of over 8. The MBC/MIC (S. aureus [2]; strain 11, MRSA, c-ermB) was over 8.
